Measurements from patent publication US5126483A, “1-phenylalkyl-3-phenylurea derivatives” (Mitsubishi Kasei Corporation, priority 1989, dated 1992).

Assays:
[1] = tested on: cholesterol level in serum; test: Effect of reducing a lipid level in blood: serum cholesterol in hamsters fed 1% cholesterol / 0.5% cholic acid diet; format: in vivo, golden Syrian hamster; conditions: once a day for 5 days, relative to control group
Method: The effect of reducing a lipid level in blood by the action of the compounds according to the present invention was determined as follows:
Male golden Syrian hamsters weighing from 80 to 100 g were randomly divided into groups. The hamsters were first fed standard laboratory diets (solid feed MF-1 for mouse/rat/hamster, manufactured by Oriental Yeast Industries, KK) for 3 days. Then, they were fed the experimental diet containing 1% cholesterol and 0.5% cholic acid (manufactured by Oriental Yeast Industries, KK), ad libitum. At the same time, the compounds of the invention formulated in a shown dose (0.1-10 mg/10 ml water/kg) were administrated to the animals orally once a day at a determined time for 5 days. Water was administrated orally to the hamsters of control group in an amount of 10 ml per 1 kg of body weight. After five days of administrating the compounds, the animals were anesthetized with Pentobarbital Na (Nembutal injection, manufactured by Dainabbot) and three hours after the final administration of the test compound, a blood sample was taken from abdominal cava. The serum was separated from the sample by centrifuging.
The cholesterol level in the serum was determined by using a blood cholesterol measuring kit, Determina-TC5 manufactured by Kyowa Medix Co. The results are represented by percent inhibition (%) of cholesterol level in serum relative to that of the control group, and shown in the following Table 2.

[2] = molecular target: acyl-CoA: cholesterol acyltransferase (ACAT); test: ACAT inhibitory action: cholesteryl-[14C] oleate formation in hamster microsomes; format: biochemical; conditions: radio-labelled oleoyl coenzyme A (14C)
Method: The ACAT inhibitory action of the compounds according to the present invention was measured as follows:
ACAT activity in the hamster microsomes was determined by measuring the rate of radio-active cholesteryl-[^14 C] oleate formation from cholesterol and radio-labelled oleoyl coenzyme A (^14 C) with or without test compound.
Calculations of IC50 value were made using data of the percent inhibition at each compound concentration.

[3] = Mesocricetus auratus, po, 120 h, read-out: Percent inhibition of cholesterol in serum
[4] = Mesocricetus auratus, po, 120 h, 0.1 mg/kg, read-out: Percent inhibition of cholesterol in serum

Compound | inhibition in vivo at 1 mg/kg [1, 3] [%] | other results
CCCCC(CNC(=O)Nc1c(C(C)C)cccc1C(C)C)c1cccc(CC)c1 (stereo not drawn) [Example 15] | 36 | –
CCCCCC(CNC(=O)Nc1c(C(C)C)cccc1C(C)C)c1cccc(OC)c1OC (single isomer, unassigned; (-)) [Example 51, (-)-1-(2-(2,3-dimethoxyphenyl)heptyl)-3-(2,6-diisopropylpheyl)urea] | – | Percent inhibition of cholesterol in serum ([1]; 0.1 mg/kg, oral): 25%
CCCCC(CNC(=O)Nc1c(C(C)C)cccc1C(C)C)Cc1ccc(Cl)cc1 (stereo not drawn) [Example 49] | – | inhibition in vivo at 10 mg/kg ([1]; Mesocricetus auratus, po, 120 h, 10 mg/kg (footnote 2), read-out: Percent inhibition of cholesterol in serum): 33%
CCCCC(CNC(=O)Nc1c(C(C)C)cccc1C(C)C)c1ccc(C)c(C)c1C (stereo not drawn) [Example 24] | 39 | –
CCCCCC(CNC(=O)Nc1c(C(C)C)cccc1C(C)C)c1cccc(OC)c1OC (stereo not drawn) [Example 33] | – | IC50 [2]: 0.016 µM; inhibition in vivo at 0.1 mg/kg [1, 4]: 24%
CCCCC(CNC(=O)Nc1c(C(C)C)cccc1C(C)C)c1cccc(OC)c1OC (stereo not drawn) [Example 32] | 43 | –
CCCCCC(CNC(=O)Nc1c(C(C)C)cccc1C(C)C)c1cccc(OC)c1 (stereo not drawn) [Example 29] | 36 | –
CCCCCC(CNC(=O)Nc1c(C(C)C)cccc1C(C)C)c1cccc(C)c1 (stereo not drawn) [Example 12] | 43 | IC50 [2]: 0.026 µM
CCCCC(CNC(=O)Nc1c(C(C)C)cccc1C(C)C)c1cccc(Cl)c1 (stereo not drawn) [Example 40] | 38 | IC50 [2]: 0.031 µM
CCCCCC(CNC(=O)Nc1c(C(C)C)cccc1C(C)C)c1cccc(OC)c1OC (single isomer, unassigned; (+)) [Example 50, (+)-1-(2-(2,3-dimethoxyphenyl)heptyl)-3-(2,6-diisopropylpehyl)urea] | – | inhibition in vivo at 0.1 mg/kg [1, 4]: 18%
CCCCC(CNC(=O)Nc1c(C(C)C)cccc1C(C)C)c1ccc(C)cc1 (stereo not drawn) [Example 19] | 36 | –
CCCCCCC(CNC(=O)Nc1c(C(C)C)cccc1C(C)C)c1ccc(OC)c(OC)c1 (stereo not drawn) [Example 36] | 26 | –
CC(C)c1cccc(C(C)C)c1NC(=O)NCC(c1ccccc1)C(C)(C)C (stereo not drawn) [compound 1, 1-(3,3-dimethyl-2-phenylbutyl)-3-(2,6-diisopropyl-phenyl)urea, reference compound] | – | inhibition in vivo at 5 mg/kg ([1]; Mesocricetus auratus, po, 120 h, 5 mg/kg, read-out: Percent inhibition of cholesterol in serum): 5%
CCCCC(CNC(=O)Nc1c(C(C)C)cccc1C(C)C)c1ccccc1C (stereo not drawn) [Example 9] | 19 | IC50 [2]: 0.0049 µM
